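Each compound was tested at five concentrations against cells in 96-well plates for 48 hours. TGI: total growth inhibition.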
What was measured:
Test in all cases: NCI-60 cell line screen, 48 h
[1] = test system: SNB-19 CNS
[2] = test system: SF-539 CNS
[3] = test system: OVCAR-8 ovarian
[4] = test system: EKVX NSCLC
[5] = test system: LOX IMVI melanoma
[6] = test system: SK-MEL-28 melanoma
[7] = test system: HCT-15 colon
[8] = test system: MDA-MB-231 breast
[9] = test system: OVCAR-3 ovarian
[10] = test system: MDA-N
[11] = test system: UACC-62 melanoma
[12] = test system: A549 NSCLC
[13] = test system: K-562 leukemia

Row | SMILES | TGI [1] [µM] | TGI [2] [µM] | TGI [3] [µM] | TGI [4] [µM] | TGI [5] [µM] | TGI [6] [µM] | TGI [7] [µM] | TGI [8] [µM] | TGI [9] [µM] | TGI [10] [µM] | TGI [11] [µM] | TGI [12] [µM] | TGI [13] [µM]
1 | O=C(O)CCC(=O)Nc1ccc2c(c1)S(=O)(=O)N(CC(=O)O)C2=O | > 100 | > 100 | > 100 | > 100 | > 100 | > 100 | > 100 | > 100 | > 100 | > 100 | > 100 | > 100 | > 100
2 | Cn1c(=O)nc2n(CCO)c(-c3ccccc3)c(-c3ccccc3)nc-2c1=O | > 100 | > 100 | > 100 | > 100 | > 100 | > 100 | > 100 | > 100 | > 100 | > 100 | > 100 | > 100 | > 100
3 | Cc1c(-c2ccccc2)c(-c2ccc(OCCN(C)C)cc2)n2ccccc12 | 25.3 | 24.8 | 28.5 | 31.8 | 5.81 | 3.45 | 8.06 | 23.6 | 26.1 | 14.3 | 3.66 | 29 | 4.14
4 | N#Cc1cnn2c1n[n+]([O-])c1ccc(Cl)cc12 | 10.1 | 44.5 | > 42.9 | 7.24 | 8.51 | 27.7 | 4.36 | 35.5 | 9.08 | 22.7 | 9.09 | > 79.8 | 3.91
5 | C[N+](C)(C)CC1Cc2ccccc2C1=O (configuration not stated) | > 10 | > 10 | > 3.16 | > 10 | > 10 | > 10 | > 10 | > 10 | > 10 | > 10 | > 10 | > 10 | 5.07
6 | Cc1sc2ncnc(NCCc3ccccc3)c2c1C | > 100 | 31.2 | 38 | 13.9 | 22.4 | 35 | 87.7 | 37.9 | > 100 | 23.8 | 24.6 | 83 | 63.1
7 | CSc1nc(=S)[nH]c2n[nH]c(C)c12 | > 100 | > 100 | > 100 | > 100 | > 100 | > 100 | > 100 | > 100 | > 100 | > 100 | > 100 | > 100 | > 100
8 | CC(C#N)Nc1ccc(Oc2ccc(C(C)(C)c3ccc(Oc4ccc(NC(C)C#N)cc4)cc3)cc2)cc1 (configuration not stated) | > 100 | > 100 | > 100 | > 100 | > 100 | > 100 | > 100 | > 100 | > 100 | > 100 | > 100 | > 100 | > 100
9 | O=C(Cc1ccccc1)N/N=C(/CCN1CCCC1)CC(c1ccccc1)c1c(O)c2ccccc2oc1=O (configuration not stated) | > 100 | > 100 | > 100 | > 100 | 44.4 | > 100 | > 100 | > 100 | > 100 | > 100 | > 100 | > 100 | > 100
10 | CCOC(=O)CNC(=O)C(CSC(=O)N(O)c1ccc(Br)cc1)NC(=O)CCC(N)C(=O)OCC (configuration not stated) | > 50 | > 50 | > 50 | > 50 | > 50 | > 50 | > 50 | > 50 | > 50 | > 50 | > 50 | > 50 | > 50
11 | O=C1/C(=C/c2cccc([N+](=O)[O-])c2)CCCc2ccccc21 | 28.5 | 28.6 | 28.9 | 32.5 | 16.5 | 28.6 | 23 | 34.2 | 26.5 | 22.7 | 21.6 | 48 | 14.6
12 | O=C1C(NCCc2cc(Br)c(O)c(Br)c2)=CC(=O)c2ncccc21 | 27.5 | 5.36 | 32.7 | 30.7 | 8.69 | 10 | 31.9 | 29.5 | 6.26 | 3.34 | 3.51 | 9.89 | 13.8
13 | CN(CCO)CC(=O)CC(O)(C(F)(F)F)C(F)(F)F | > 100 | > 100 | > 100 | > 100 | 86.3 | > 100 | > 100 | > 100 | 87 | > 100 | > 100 | > 100 | > 100
14 | O=C(CNC(=O)OCc1ccccc1)NCCCCC(NC(=O)OCc1ccccc1)C(=O)O (configuration not stated) | > 100 | > 100 | > 100 | > 100 | > 100 | > 100 | > 100 | > 100 | > 100 | > 100 | > 100 | > 100 | > 100

From PubChem BioAssay (NCI)
